Reference: patent US6762170B1, “2-(purin-9-yl)-tetrahydrofuran-3,4-diol derivatives” (SmithKlineBeecham Corporation, priority 1998, dated 2004)
Where a name gives a salt, the structure may show the parent alone.

Columns and labels:
Type in all cases: cell-based
Adenosine 1 receptor = biological target: T1, Adenosine 1 receptor (Homo sapiens, UniProt P30542); assay: Agonist activity against adenosine 1 receptor subtype (CHO cells, forskolin-enhanced cAMP, SPAP reporter); details: EC50 ratio to NECA; transfected CHO cells, forskolin-enhanced cAMP reflected by SPAP
T1 construct: expressed in transfected cells; host or cells: Chinese hamster ovary (CHO) cells, co-transfected with a CRE-SPAP reporter
T1 sequence (P30542 1-326): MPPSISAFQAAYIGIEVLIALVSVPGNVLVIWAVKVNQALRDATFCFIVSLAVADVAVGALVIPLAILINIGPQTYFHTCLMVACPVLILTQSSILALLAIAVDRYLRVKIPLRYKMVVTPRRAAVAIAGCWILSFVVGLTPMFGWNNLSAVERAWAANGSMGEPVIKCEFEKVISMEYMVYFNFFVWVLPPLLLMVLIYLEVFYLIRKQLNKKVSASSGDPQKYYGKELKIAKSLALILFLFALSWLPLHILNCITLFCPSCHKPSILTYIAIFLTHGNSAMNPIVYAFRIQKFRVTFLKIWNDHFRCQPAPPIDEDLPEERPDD
In short: (§1)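 CHO cells expressed the human receptor plus a cAMP response element–driven SPAP reporter. Agonism was measured as SPAP change from forskolin-enhanced cAMP for A1 and A3, and from basal cAMP for A2a. EC50 is expressed as a ratio to that of NECA.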

Adenosine 3 receptor = biological target: T2, Adenosine 3 receptor (Homo sapiens, UniProt P0DMS8); assay: Agonist activity against adenosine 3 receptor subtype (CHO cells, forskolin-enhanced cAMP, SPAP reporter); details: EC50 ratio to NECA; transfected CHO cells, forskolin-enhanced cAMP reflected by SPAP
T2 construct: expressed in transfected cells; host or cells: Chinese hamster ovary (CHO) cells, co-transfected with a CRE-SPAP reporter
T2 sequence (P0DMS8 1-318): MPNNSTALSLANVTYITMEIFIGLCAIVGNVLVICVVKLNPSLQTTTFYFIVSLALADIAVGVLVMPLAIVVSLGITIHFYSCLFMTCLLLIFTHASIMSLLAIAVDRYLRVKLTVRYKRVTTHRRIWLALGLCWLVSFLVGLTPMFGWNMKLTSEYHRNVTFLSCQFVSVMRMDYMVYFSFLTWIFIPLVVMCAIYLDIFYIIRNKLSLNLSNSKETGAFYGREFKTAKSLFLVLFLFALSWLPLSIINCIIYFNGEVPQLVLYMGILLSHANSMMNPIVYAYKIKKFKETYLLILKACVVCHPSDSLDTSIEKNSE
In short: as §1

Adenosine 2a receptor = biological target: T3, Adenosine 2a receptor (Homo sapiens, UniProt P29274); assay: Agonist activity against adenosine 2a receptor subtype (CHO cells, cAMP response element/SPAP reporter); details: EC50 ratio to NECA; transfected CHO cells, basal cAMP reflected by SPAP
T3 construct: expressed in transfected cells; host or cells: Chinese hamster ovary (CHO) cells, co-transfected with a CRE-SPAP reporter
In short: as §1

T3 sequence (P29274 whole entry): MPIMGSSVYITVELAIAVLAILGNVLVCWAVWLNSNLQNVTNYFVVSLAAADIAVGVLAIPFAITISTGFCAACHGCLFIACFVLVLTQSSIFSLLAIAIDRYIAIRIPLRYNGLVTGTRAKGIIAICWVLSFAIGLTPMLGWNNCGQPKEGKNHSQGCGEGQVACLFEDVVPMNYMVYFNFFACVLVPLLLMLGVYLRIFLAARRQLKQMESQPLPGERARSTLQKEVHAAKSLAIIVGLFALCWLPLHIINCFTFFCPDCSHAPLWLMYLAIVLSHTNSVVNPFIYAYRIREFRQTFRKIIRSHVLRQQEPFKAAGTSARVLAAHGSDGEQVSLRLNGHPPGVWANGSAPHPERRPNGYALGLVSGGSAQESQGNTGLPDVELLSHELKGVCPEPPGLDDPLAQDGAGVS

Structure (SMILES)	A1 (EC50 values as a ratio of that of NECA) (Adenosine 1 receptor)	A3 (EC50 values as a ratio of that of NECA) (Adenosine 3 receptor)	A2a (EC50 values as a ratio of that of NECA) (Adenosine 2a receptor)
CCc1cc([C@H]2O[C@@H](n3cnc4c(NC5CCSCC5)nc(NCCN5CCCCC5)nc43)[C@H](O)[C@@H]2O)on1.O=CO.O=CO [Example 12, (2S,3S,4R,5R)-2-(3-Ethyl-isoxazol-5-yl)-5-[2-(2-piperidin-1-yl-ethylamino)-6-(tetrahydro-thiopyran-4-ylamino)-purin-9-yl]-tetrahydro-furan-3,4-diol diformate]	260.3	>410	3.39
CCC(CC)Nc1nc(NCCc2cn(C)cn2)nc2c1ncn2[C@@H]1O[C@H](c2cc(C(C)O)no2)[C@@H](O)[C@H]1O.O=CO.O=CO (stereo partly drawn) [Example 58, (2R,3R,4S,5S)-2-{6-(1-Ethyl-propylamino)-2-[2-(1-methyl-1H-imidazol-4-yl)-ethylamino]-purin-9-yl}-5-[3-(1-hydroxy-ethyl)-isoxazol-5-yl]-tetrahydro-furan-3,4-diol diformate]	812.2	>525	0.244
CCc1cc(C2OC(n3cnc4c(Nc5ccc(O)c(F)c5)nc(NCCN5CCCCC5)nc43)C(O)C2O)on1.O=CO.O=CO [Example 10, (2S,3S,4R,5R)-2-(3-Ethyl-isoxazol-5-yl)-5-[6-(3-fluoro-4-hydroxy-phenylamino)-2-(2-piperidin-1-yl-ethylamino)-purin-9-yl]-tetrahydro-furan-3,4-diol diformate]	59.38	>180	2.07
CCc1cc([C@H]2O[C@@H](n3cnc4c(NCC(c5ccccc5)c5ccccc5)nc(N[C@H]5CC[C@H](N)CC5)nc43)[C@H](O)[C@@H]2O)on1.O=CO.O=CO (relative stereo) [Example 19, (2R,3R,4S,5S)-2-[2-(trans-4-Amino-cyclohexylamino)-6-(2,2-diphenyl-ethylamino)-purin-9-yl]-5-(3-ethyl-isoxazol-5-yl)-tetrahydro-furan-3,4-diol diformate]	670.2	>295	2.41
CCc1cc(C2OC(n3cnc4c(NCC(c5ccccc5)c5ccccc5)nc(NC5CCC(NC(C)=O)CC5)nc43)C(O)C2O)on1 (stereo not drawn) [Example 24, N-(4-{6-(2,2-Diphenyl-ethylamino)-9-[5S-(3-ethyl-isoxazol-5-yl)-3R,4S-dihydroxy-tetrahydro-furan-2R-yl]-9H-purin-2-ylamino}-cyclohexyl)-acetamide formate]	573.6	>248	0.23
CCc1cc(C2OC(n3cnc4c(NC5CCCC5)nc(NCCN5CCCCC5)nc43)C(O)C2O)on1 [Example 8, (2S,3S,4R,5R)-2-(3-Ethyl-isoxazol-5-yl)-5-[6-(cyclopentylamino)-2-(2-piperidin-1-yl)-ethylamino)-purin-9-yl]-tetrahydro-furan-3,4-diol diformate]	49.1	>310	0.67
CCc1cc(C2OC(n3cnc4c(NCC(c5ccccc5)c5ccccc5)nc(NCCN5CCOCC5)nc43)C(O)C2O)on1 [Example 2, (2R,3R,4S,5S)-2-[6-(2,2-Diphenyl-ethylamino)-2-(2-morpholin-4-yl-ethylamino)-purin-9-yl]-5-(3-ethyl-isoxazol-5-yl)-tetrahydro-furan-3,4-diol diformate.]	88.9	>545	0.43
CCc1cc(C2OC(n3cnc4c(NCCS(=O)(=O)NC)nc(NCCN5CCCCC5)nc43)C(O)C2O)on1 (stereo not drawn) [Example 11, 2-[9-[5S-(3-Ethyl-isoxazol-5-yl)-3R,4S-dihydroxy-tetrahydro-furan-2R-yl]-2-(2-piperidin-1-yl-ethylamino)-9H-purin-6-ylamino]-ethanesulfonic acid methylamide diformate]	32.9	>303	3.66
CCc1cc(C2OC(n3cnc4c(NC5CCS(=O)(=O)CC5)nc(NCCN5CCCCC5)nc43)C(O)C2O)on1.O=CO.O=CO [Example 31, (2R,3R,4S,5S)-2-[6-(1,1-Dioxo-hexahydro-1λ6-thiopyran-4-ylamino)-2-(2-piperidin-1-yl-ethylamino)-purin-9-yl]-5-(3-ethyl-isoxazol-5-yl)-tetrahydro-furan-3,4-diol diformate]	577.2	>310	10.59
CCc1cc(C2OC(n3cnc4c(N)nc(NCCc5ccc(S(N)(=O)=O)cc5)nc43)C(O)C2O)on1 (stereo not drawn) [Example 18, 4-(2-{6-Amino-9-[5S-(3-ethyl-isoxazol-5-yl)-3R,4S-dihydroxy-tetrahydro-furan-2R-yl]-9H-purin-2-ylamino}-benzenesulfonamide formate]	2580	>460	0.72
CCc1cc([C@H]2O[C@@H](n3cnc4c(NC(CC)CC)nc(NC5CCCC5)nc43)[C@H](O)[C@@H]2O)on1.O=CO [Example 46, (2R,3R,4S,5S)-2-[2-(Cyclopentylamino)-6-(1-ethyl-propylamino)-purin-9-yl]-5-(3-ethyl-isoxazol-5-yl)-tetrahydro-furan-3,4-diol formate]	148.72	>518	20.06
CCC(CC)Nc1nc(NCCN2CCCCC2)nc2c1ncn2C1OC(c2cc(C)no2)C(O)C1O.O=CO.O=CO [Example 55, (2R,3R,4S,5S)-2-[6-(1-Ethyl-propylamino)-2-(2-piperidin-1-yl-ethylamino)-purin-9-yl]-5-(3-methyl-isoxazol-5-yl)-tetrahydro-furan-3,4-diol diformate]	155.3	>353	0.175
CCc1cc(C2OC(n3cnc4c(NCc5ccccc5)nc(NCCN5CCCCC5)nc43)C(O)C2O)on1.O=CO.O=CO [Example 44, (2R,3R,4S,5S)-2-[6-Benzylamino-2-(2-piperidin-1-yl-ethylamino)-purin-9-yl]-5-(3-ethyl-isoxazol-5-yl)-tetrahydro-furan-3,4-diol diformate]	725.4	>221	10.3
CCc1cc(C2OC(n3cnc4c(NCc5ccccc5)nc(NCCc5cn(C)cn5)nc43)C(O)C2O)on1 [Example 43, (2R,3R,4S,5S)-2-{6-Benzylamino-2-[2-(1-methyl-1H-imidazol-1-yl)-ethylamino]-purin-9-yl}-5-(3-ethyl-isoxazol-5-yl)-tetrahydro-furan-3,4-diol diformate]	672.4	>335	3.53
